Assay results taken from ChEMBL document CHEMBL1136507, “Imidazopyrimidines, potent inhibitors of p38 MAP kinase” (Bioorg Med Chem Lett, 2003).
Calls of active or inactive are those of the source. The calls are words filed in the database; no cut-off is given here.

How the values were obtained:
Mus musculus [1] = test: Percentage inhibition against LPS-induced TNF-alpha production in mice at a 10 mg/kg dose; type: functional
[2] = molecular target: Mitogen-activated protein kinase 14 (Mus musculus, UniProt P47811); test: Inhibition of murine p38 alpha kinase
MAP kinase p38 = MAP kinase p38 (Homo sapiens, UniProt O15264+Q15759+Q16539+P53778); test: Inhibition of LPS-induced p38-related TNF-alpha production in human peripheral blood mononuclear cells; type: functional
Mus musculus [3] = test: Percentage inhibition against LPS-induced TNF-alpha production in mice at a 2 mg/kg dose; type: functional
Mus musculus [4] = test: Percentage inhibition against LPS-induced TNF-alpha production in mice at a 10 mg/kg dose; Not active; type: functional, organism-based; set-up: dose 10 mg/kg

Chain of Mitogen-activated protein kinase 14 (P47811 whole entry): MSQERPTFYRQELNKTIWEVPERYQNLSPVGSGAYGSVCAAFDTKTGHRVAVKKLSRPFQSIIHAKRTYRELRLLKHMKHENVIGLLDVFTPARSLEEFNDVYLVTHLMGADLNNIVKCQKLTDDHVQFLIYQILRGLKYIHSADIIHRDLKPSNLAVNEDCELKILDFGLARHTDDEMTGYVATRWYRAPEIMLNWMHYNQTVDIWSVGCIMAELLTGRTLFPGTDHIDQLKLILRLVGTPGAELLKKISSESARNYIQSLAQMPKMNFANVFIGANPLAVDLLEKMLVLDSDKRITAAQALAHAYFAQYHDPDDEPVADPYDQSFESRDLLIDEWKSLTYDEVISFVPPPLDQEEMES

SMILES	IC50 [2]	IC50 (MAP kinase p38)	inhibition in vivo at 10 mg/kg (Mus musculus [1])	inhibition in vivo at 2 mg/kg (Mus musculus [3])	inhibition (Mus musculus [4])
COc1cc(N)[nH]c2nc(-c3ccc(F)cc3)c(-c3ccncc3)c1-2	–	–	75%	–	–
Nc1ccn2c(-c3ccnc(NCc4ccccc4)c3)c(-c3ccc(F)cc3)nc2n1	0.006 µM	0.006 µM	42%	–	–
C[C@H](Nc1cc(-c2c(-c3ccccc3)nc3nc(N)ccn23)ccn1)c1ccccc1	0.001 µM	0.002 µM	96%	34%	–
Fc1ccc(-c2[nH]c3ccc4[nH]c(Cc5ccccc5)nc4c3c2-c2ccncc2)cc1	0.022 µM	–	70%	–	–
Nc1ccn2c(-c3ccnc(N[C@H]4CCCc5ccccc54)c3)c(-c3ccccc3)nc2n1	0.008 µM	–	–	–	inactive

Second part, led by results:

IC50 [2]	IC50 (MAP kinase p38)	SMILES	inhibition in vivo at 10 mg/kg (Mus musculus [1])	inhibition in vivo at 2 mg/kg (Mus musculus [3])	inhibition (Mus musculus [4])
0.21 µM	0.09 µM	COc1nccc(-c2c(-c3ccccc3)nc3nc(N)ccn23)n1	87%	–	–
0.037 µM	–	C[C@@H](Nc1nccc(-c2c(-c3ccccc3)nc3nc(N)ccn23)n1)c1ccccc1	66%	–	–
0.57 µM	–	Nc1ccn2c(-c3ccncc3)c(-c3ccc(F)cc3)nc2n1	97%	–	–
0.008 µM	–	C[C@H](Nc1nccc(-c2c(-c3ccccc3)nc3nc(N)ccn23)n1)c1ccccc1	100%	83%	–
0.457 µM	0.028 µM	CSc1nccc(-c2c(-c3ccccc3)nc3nc(N)ccn23)n1	23%	–	–
0.002 µM	–	COC[C@H](C)Nc1cc(-c2c(-c3ccccc3)nc3nc(N)ccn23)ccn1	93%	–	–
0.99 µM	0.304 µM	Nc1ccn2c(-c3ccncn3)c(-c3ccccc3)nc2n1	73%	–	–
